Measurements reported in US7977041B2, “Methods and kits for testing the efficacy of therapeutic compounds and other therapies in a three-dimensional matrix with respect to tumorous cells and tissue” (priority 2006, dated 2011).

System: renal cell carcinoma tissue, Patient Sample GS-640 (kidney tissue)
Test: tumor tissue fragments in three-dimensional gel matrix: cell migration/invasion away from the fragment under chemotherapy
Format: cell-based, human
Details: 5 days treatment; for number of invading cells: compared with control sample at Day 5; for response of tumor sample to the drug (behavior of cells growing and invading away from the solid tumor fragment): patient renal cell carcinoma fragments in gel matrix, 37 degree Celsius, 5% CO2, compared with untreated control
Source text: FIGS. 1-8 are photographic and photomicrographic images which show, by way of example, use of the means and methods of the present invention with respect to a tissue sample removed from a patient. With respect to FIGS. 1-8, Patient Sample GS-640, comprising kidney tissue, was removed from the patient by a surgeon during surgery.
Tissue analysis and screening in accordance with the invention were requested by the surgeon, and proper consent was obtained from the patient prior to surgical removal of a sample quantity of tissue from the RHS Kidney. The patient was diagnosed with renal cell carcinoma. A tissue sample of approximately 1 gram in quantity was removed from the patient during surgery, and was placed into a 25 ml sample jar, and immersed in sterile saline. The tumor tissue was kept at 4 degrees centigrade until processed for the screening of therapeutic compounds in accordance with the means and methods of the invention. All procedures were performed under sterile conditions in a bio-safety laminar flow hood.
FIG. 1 is a photographic image showing the mechanical division of the sample into portions to be tested. The sample has been prepared by dissecting away any non viable tissue and blood prior to mincing into 1-2 mm pieces using sterile disposable scalpels.
FIG. 2 is a photographic image showing tumor sample portions which have been placed into each well of a 48 well plate, and been submersed in a gel matrix mixture according to the invention. After insertion of the portions, the mixture was allowed to form into a gel at room temperature for approximately 30 minutes. Once the gel formed around the fully immersed tumor fragments, nutrient rich media was added as a liquid overlay that permeated the entire gel and tumor fragment.
Each different chemotherapy and or dose of chemotherapy was added to a set of 6 wells out of the 48-well plate. A total of 7 different chemotherapies were assessed in this plate. One set of six wells were not treated with drug and thus acted as ‘control conditions’ for tumor fragment growth and invasion. Each of the eight vertical lanes containing six separate wells was marked with a symbol for each chemotherapy/dose used and noted correspondingly on data collection sheets. […] The plates were then placed in a conventional 37 degree Celsius incubator at 5% CO2.
This image is thus representative of all wells at Day 0 with or without chemotherapeutics. Images were made with a 400× magnification phase contrast micrograph using ZEISS camera specs.
FIG. 4 is a photomicrographic image which showing a patient control sample (no treatment) after 3 days incubation @37° C. and 5% CO2. Noteworthy is the migration of cells away from the solid tumor mass in a halo around the tumour fragment.
Noteworthy is the halo of cells and increased cell density as compared with the results shown at Day 3 of the test. The lines on the images have been drawn to show the distance measurements within which approximately 95% of the migrating cells have migrated away from the margins of the tissue sample.

Structure (SMILES) | migratory distance of cells | number of invading cells | response of tumor sample to the drug (behavior of cells growing and invading away from the solid tumor fragment)
CC(=O)O[C@@]12CO[C@@H]1C[C@H](O)[C@@]1(C)C(=O)[C@H](O)C3=C(C)[C@@H](OC(=O)[C@H](O)[C@@H](NC(=O)OC(C)(C)C)c4ccccc4)C[C@@](O)([C@@H](OC(=O)c4ccccc4)[C@H]21)C3(C)C [Docetaxol, Docetaxel] | longer migratory distance than treatment with Taxol | fewer number of invading cells than the control | moderate response
N.N.[Cl][Pt][Cl] [Cisplatin] | – | identical in appearance and cell numbers to the control sample | failed chemotherapy
CC(=O)O[C@H]1C(=O)[C@@]2(C)[C@H]([C@H](OC(=O)c3ccccc3)[C@]3(O)C[C@H](OC(=O)[C@H](O)[C@@H](NC(=O)c4ccccc4)c4ccccc4)C(C)=C1C3(C)C)[C@]1(OC(C)=O)CO[C@@H]1C[C@@H]2O [Taxol, Paclitaxel] | – | – | a drop in both the distance and the number of cells that have grown and invaded away from the solid tumor fragment
